Four molecules from US3966793A (priority 1964, dated 1976) can be followed below.

In series [1] the test system is male rat. Kind of series: Combativeness (rat). It counts as in vivo. Particulars: for ED50: rat, PO, read-out: Combativeness, 50% effective dose. From the text:
It is possible to make a male rat aggressive towards another male rat enclosed in the same cage by passing an electric current of more or less high voltage through the floor of the cage.
This test, like the preceding one, can obviously give information of clinical value for the treatment of aggression diseases.

The test system of series [2] is mouse. Kind of series: Benzedrine provoked motor activity (M). As to conditions: PO, read-out: Benzedrine provoked motor activity, 50% effective dose. In kind it is in vivo. From the text: (§1) 6. Spontaneous motor activity in the rat and mouse and provoked motor activity
(§2) The effect of drugs on voluntary movements of animals can be studied statistically by methods, the details of which will not be discussed here. The mouse, which is an extremely lively animal and moves about a great deal, is particularly suitable for this type of experiment.
(§3) Moreover, this spontaneous mobility can be exacerbated by preventive administration to the animals of certain substances such as benzedrine, mescaline and ritaline.
(§4) The experimental results obtained by these methods give valuable information for clinical purposes with regard to the treatment of ambulatory psychomotor crises.

Series [3] has as its system rat. Briefly: Spontaneous motor activity in the rat. It counts as in vivo. Particulars: for ED50: Rattus norvegicus, po, read-out: Spontaneous motor activity, 50% effective dose.
Description: as §1, §2

The subject of series [4] is mice. Briefly: Traction test (mice), myorelaxant activity. In kind it is in vivo. As to conditions: for ED50: Mus musculus, po, read-out: Traction, 50% effective dose. From the text: This consists in observing when the treated animals are capable of retrieving a rod grasped by the front paws only. Inability to carry this out was interpreted as a sign of myorelaxant activity.

The subject of series [5] is rat. Briefly: Benzedrine provoked motor activity (R). It counts as in vivo. As to conditions: PO, read-out: Benzedrine provoked motor activity, 50% effective dose.
Description: as §1, §2, §3, §4

Series [6] deals with mice. Briefly: Exploration test (mice). Particulars: for ED50: Mus musculus, po, read-out: Exploration, 50% effective dose. It counts as in vivo. The protocol:
5. Exploration test (mice)
This extremely simple test consists in placing a mouse at the center of a floor pierced with holes and in noting how many holes the mouse explores in 5 minutes. This test is carried out in a room in which complete silence is observed and which contains no person except the experimenter who is seated and still. It appeals to the curiosity of the animals. The doses of the compounds employed are, however, very small and considerably less than those required to impair movement. This simple test makes it possible to observe whether the compounds assayed produce a more or less pronounced lack of interest in the environment and it gives information which is interesting from the clinical point of view with regard to the treatment of anxiety and restlessness.

Series [7] deals with mouse. Briefly: Spontaneous motor activity in the mouse. In kind it is in vivo. Particulars: for ED50: Mus musculus, po, read-out: Spontaneous motor activity, 50% effective dose.
Description: as §1, §2

Series [8] has as its system mice. Kind of series: Anti-convulsant activity (electric shock) (mice). In kind it is in vivo. Particulars: for ED50: Mus musculus, po, read-out: Electric shock, 50% effective dose. From the text: 4. Anti-convulsant activity (electric shock) (mice)
The test consists in determining the intensity of the electric current required to produce a fatal shock in a batch of test animals.
Certain preventively administered compounds effectively protect a certain percentage of animals subjected to an electric current of an intensity which is fatal to untreated animals.

The test system of series [9] is mice. Kind of series: Anti-convulsant activity (anti-pentetrazole) (mice). In kind it is in vivo. As to conditions: mouse, PO; pentetrazole 125 mg./kg. IP; read-out: Anti-pentetrazole, 50% effective dose. The protocol: 3. Anti-convulsant activity (anti-pentetrazole) (mice)
Pentetrazole, injected intraperitoneally in a dose of 125 mg./kg. produces fatal convulsions in 100% of the animals.
Certain compounds exert a protective action preventing convulsions and permitting survival.

For series [10], the system named is rats. Kind of series: Double box conditioning test (R). It counts as in vivo. Particulars: rat. From the text:
The test used consists in educating rats to avoid an electric current passed through the floor of a cage of two compartments when they change compartments. The animal is first warned by a lamp which lights up in the compartment through which the current is passing while the other is in relative darkness.
This test, which requires more or less daily training at the rate of 50 times for each rat, makes it possible to follow the animals and note their progress. The performances realized at the end of a certain time (3 weeks to 1 month of training) are fairly constant, the percentage of errors made by adequately gifted subjects being less than 10 and very often even zero.
One would imagine that disturbances produced in these performances which call upon the memory of animals would be of great importance for the choice of a new medicament. A deconditioning drug of sufficient intensity could have the result of partly depriving the patient of the idea of danger and would consequently require special surveillance of the sick persons.

Series [11] deals with mice. Briefly: Balance test: rotating rod (mice) (Equilibration). In kind it is in vivo. Particulars: for ED50: Mus musculus, po, read-out: Equilibration, 50% effective dose. From the text: 2. Balance test: rotating rod (mice)
This test consists in observing whether the treated animals are capable of maintaining their balance on a horizontal rod kept in rotation.
Numerous neuroleptic compounds or tranquilizers disturb the equilibration reflex.

Series [12] concerns cat. Kind of series: Morphine crisis (C). It counts as in vivo. As to conditions: Felis catus, SC, read-out: Morphine crisis, 50% effective dose. From the text: In the cat, morphine produces a specific state of excitation with hallucinations which can be attenuated or suppressed by certain psycholeptic drugs.
The subject of series [13] is mouse. Kind of series: Mescaline provoked motor activity (M). It counts as in vivo. As to conditions: PO, read-out: Mescaline provoked motor activity, 50% effective dose.
Description: as §1, §2, §3, §4

For series [14], the system named is mouse. Kind of series: Ritaline provoked motor activity (M). It counts as in vivo. Particulars: PO, read-out: Ritaline provoked motor activity, 50% effective dose.
Description: as §1, §2, §3, §4

The nature of series [15]: Acute toxicity (M) LD 50. Particulars: in vivo, mouse.
Series [16] in a line: Reaction (pH) of aqueous solution. It counts as physicochemical.
A short description of series [17]: Solubility.
For series [18], the system named is mouse. Briefly: Antistrychnine activity. As to conditions: po, read-out: Anti-strychnine, 50% effective dose. It counts as in vivo. From the text:
7. Antistrychnine activity

Series [19] has as its system cats. Kind of series: Aggressiveness (cat/mouse). In kind it is in vivo. Particulars: Felis catus, SC, read-out: Aggressiveness, 50% effective dose. From the text: 9. Aggressiveness (cat/mouse)
In general, 75 to 80% of cats are aggressive when confronted with white mice. Psycholeptics and tranquilizers may make the cat indifferent and sometimes even amiable to the mouse. Similarly, in the case of cats that are furious and aggressive in relation to humans, diminution or suppression of the instinctive fear and establishment of a climate of confidence are observed.

The subject of series [20] is mouse. Kind of series: Morphine excitation (M). Particulars: PO, read-out: Morphine excitation, 50% effective dose. It counts as in vivo. From the text: In the mouse, the action of morphine is different but also manifested by marked central excitation.
In series [21] the test system is central nervous system. Kind of series: Pharmacodynamic / central nervous system tests taken together. In kind it is in vivo. From the text:
A certain number of the compounds described in the present application have been studied with regard to their action on the central nervous system, as psycholeptics, myorrelaxants and tranquilizers. In addition, the acute toxicity has been determined for a number of these compounds.
It has thereby been possible to make quantitative comparisons of the activity of the different compounds for the different tests employed.

Series [22] deals with mouse. Kind of series: Potentiation of narcosis (M). It counts as in vivo. As to conditions: PO, read-out: Narcotic potentiation, 50% effective dose. From the text:
12. Potentiation of narcosis
Most psycholeptics are hypnotics in large doses, but many of them can, in small doses, without themselves producing any hypnosis, either prolong the time of sleep obtained with a true hypnotic (for example a barbiturate) or appreciably lower the dose of barbiturate required to obtain sleep.

Each structure is given as a SMILES string.

As for `O=C1CN=C(c2ccccc2)c2cc(Cl)ccc2N1` [Nor-diazepame, 7-Chloro-5-phenyl-2-oxo-2,3-dihydro-1H-benzo[f]-1,4-diazepine, reference compound], the ED50 in series [1] is 100 mg/kg; in [2] it was more than 20 mg/kg; in series [3], 50 mg/kg; in series [4], 3.5 mg/kg; in series [5], 100 mg/kg; in series [6], 7.8 mg/kg. In addition, the ED50 in series [7] amounted to 50 mg/kg; in [8], 9 mg/kg; in series [9], 2.9 mg/kg; in series [11] it was 8.6 mg/kg. Moreover, in series [10], the “Double box conditioning, effect in words” value is recorded as “Without effect”.

Usually LD50 stands for the dose expected to kill half of the subjects tested. Higher therefore signals lower toxicity. With `O=C(O)C1N=C(c2ccccc2)c2cc(Cl)ccc2NC1=O.[K+].[K+].[OH-].[OH-]` (stereo not shown) [4306 CB, 7-Chloro-2,3-dihydro-2-oxo-5-phenyl-1H-benzo[f]-1,4-diazepine-3-carboxylic acid, monopotassium salt, monopotassium hydroxide], the ED50 in series [1] is less than 25 mg/kg; in [12], 25 mg/kg; in series [2], more than 20 mg/kg; in series [3], less than 25 mg/kg; in series [13], 20 mg/kg; in series [14], 20 mg/kg. For the same molecule, the ED50 in series [4] was 1.1 mg/kg; in [5], more than 100 mg/kg; in [6], 4 mg/kg; in series [7], 5 mg/kg; in series [8], 4.6 mg/kg; in series [9], 1.7 mg/kg. The ED50 in [18] came to 25 mg/kg; in [19], 25 mg/kg; in [11] it was 14 mg/kg; in series [20], 50 mg/kg; in [22] it was 2 mg/kg. Further, the “Spontaneous motor activity, 50% effective dose” value is 25 mg/kg in series [3] (PO, listed as Ca 2053) and 10 mg/kg in series [7] (PO, listed as Ca 2053). Moreover, the “Traction, 50% effective dose” value in [4] (mouse, PO, listed as Ca 2053) is 1.25 mg/kg. Also, the 50% lethal dose (LD50) in [15] (IP) came out at 250 mg/kg; in [15] (PO), 700 mg/kg. In addition, the “Reaction / pH of aqueous solution” value in series [16] was “strongly alkaline in reaction”. In [17], the Solubility in water result is on record as “completely soluble in water”. Further, in series [6] (mouse, PO, listed as Ca 2053), the “Exploration, 50% effective dose” value was determined as 6.25 mg/kg. Further, the “Electric shock, 50% effective dose” value in series [8] (mouse, PO, listed as Ca 2053) was found to be 3 mg/kg. For the same molecule, the “Equilibration, 50% effective dose” value in series [11] (mouse, PO, listed as Ca 2053) was found to be 9.6 mg/kg. The “Activity compared with diazepame” value in series [21] (most of the tests) is “highly active and in most of the tests, it is at least equal and frequently superior to diazepame”. The “Pharmacodynamic comparison of products obtained by the two methods” value in [21] (saponification of benzodiazepine ester or of imine diester) is “pharmacodynamic studies confirm the identity of the products obtained by the two methods”.

On to `O=C(O)C1N=C(c2ccccc2)c2cc([N+](=O)[O-])ccc2NC1=O.[K+].[K+].[OH-].[OH-]` (stereo not shown) [4335 CB, 7-Nitro-2,3-dihydro-2-oxo-5-phenyl-1H-benzo[f]-1,4-diazepine-3-carboxylic acid, monopotassium salt, monopotassium hydroxide], for which the ED50 is 10 mg/kg in [1]; 25 mg/kg in series [12]; 25 mg/kg in series [3]; 20 mg/kg in series [13]; more than 20 mg/kg in [14]; 1.25 mg/kg in series [4]. In addition, the ED50 is 100 mg/kg in [5]; 1.8 mg/kg in series [6]; 5 mg/kg in series [7]; 3.2 mg/kg in [8]; 0.44 mg/kg in [9]; more than 20 mg/kg in series [18]. Besides, the ED50 in [19] was 25 mg/kg; in [11] it was 4.3 mg/kg; in series [20], 50 mg/kg. In [1] (test for combativeness), the “Effect in diminishing aggressiveness” value is listed as “marked effect in diminishing aggressiveness”. For the same molecule, the LD50 in series [15] (PO) is 560 mg/kg. The “Reaction / pH of aqueous solution” value in series [16] is listed as “strongly alkaline in reaction”. Moreover, in series [17], the Solubility in water result was “dissolves completely in water”. Besides, in [21] (different tests of Table VI), the “Activity in different tests, especially as myorelaxants and anticonvulsants” value is on record as “extremely active in different tests”. Also, the “Effect on the faculties of displacement” value in series [21] (in vivo) was “less effect on the faculties of displacement”.

In the case of `CN1C(=O)CN=C(c2ccccc2)c2cc(Cl)ccc21` [Diazepame, 7-Chloro-1-methyl-5-phenyl-2-oxo-2,3-dihydro-1H-benzo[f]-1,4-diazepine, reference compound], the ED50 in series [1] was 25 mg/kg; in [12] it was 25 mg/kg; in series [2] it was more than 20 mg/kg; in series [3] it was 25 mg/kg; in series [4], 1.6 mg/kg; in [5], 100 mg/kg. Moreover, the ED50 in series [6] is 6 mg/kg; in series [7] it was 5 mg/kg; in series [8], 5 mg/kg; in series [9], 1.7 mg/kg; in series [18], more than 50 mg/kg; in series [19], 25 mg/kg. Further, the ED50 was found to be 4.4 mg/kg in [11], 25 mg/kg in [20] and 2.5 mg/kg in series [22].
